Measurements as given in PMC7321403, “Synthesis and In Vitro Cytotoxicity and Antibacterial Activity of Novel 1,2,3-Triazol-5-yl-Phosphonates” (Molecules, 2020).
Where two headings read alike, the source gives them in different places.

Key:
[1] = system: HL-60 cells (human promyelocytic leukemia)
Method: (§4) Cells were purchased from the American Type Culture Collection (ATCC, Manassas, VA, USA). Human lung adenocarcinoma A549 cells were maintained in Dulbecco's Modified Eagle Medium (DMEM), while mouse fibroblast NIH/3T3 and human promyelocytic leukemia HL-60 cells were maintained in Roswell Park Memorial Institute 1640 medium (RPMI-1640) containing 10% FCS. Media were supplemented with 2 mM GlutaMAX, 100 U/mL penicillin, and 100 µg/mL streptomycin (Life Technologies, Carlsbad, California, USA). Cell cultures were maintained at 37 °C in a humidified incubator in an atmosphere of 5% CO2 (Sanyo, Japan).
(§5) Cytotoxicity of the synthesized molecules was determined on A549, NIH/3T3 and HL-60 cells using the fluorescent Resazurin assay as described previously [46].
(§6) Briefly, cells (A549 and NIH/3T3: 6000, HL-60: 120.000 cells/well) were seeded into 96-well plates (Corning Life Sciences) in media and incubated overnight. Test compounds were dissolved in three-fold amounts of dimethyl sulfoxide (DMSO). Cells were treated with an increasing concentration of test compounds (1–30 µM). […] Cell viability was determined after 72 h incubation. Resazurin reagent (Sigma-Aldrich) was added at a final concentration of 25 µg/mL. After a 2 h incubation at 37 °C in 5% CO2, fluorescence (530 nm excitation/580 nm emission) was recorded on a multimode microplate reader (Cytofluor4000, PerSeptive Biosytems). Viability was calculated with relation to untreated control cells and blank wells containing media without cells. […] A Student’s t test was performed for individual test compound concentrations with relation to untreated control cell viability values.

[2] = system: HL-60 cells (human promyelocytic leukemia); test: In vitro cytotoxicity, fluorescent Resazurin assay
Method: as §4, §5, §6

B. subtilis-GFP = test: Antibacterial activity on GFP producing Gram-positive bacteria (fluorimetry); assay type: cell-based, Bacillus subtilis; conditions: GFP fluorescence, 1–30 µM tested, mean ± SD
Method: (§1) Finally, the biological activity of the synthesized 1,2,3-triazol-5-yl-phosphonates (8, 11–26) was investigated. On the one hand, the antibacterial activity of the compounds was tested on GFP producing Gram-positive (Bacillus subtilis) and Gram-negative (Escherichia coli) bacterial cells. The GFP producing bacteria are an effective tool for screening for antibacterial activity since GFP signal measured via fluorimetry is proportional to the number of bacterial cells. Active compounds would kill bacterial cells, which results in the decrease in GFP fluorescence signal, therefore it is suitable for evaluating the antimicrobial effect of different agents. On the other hand, in vitro cytotoxicity assessments were performed on three different cell lines, such as human lung adenocarcinoma (A549), mouse fibroblast (NIH/3T3) as healthy cell line and human promyelocytic leukemia (HL-60). Table 3 contains the determined IC50 values in antimicrobial and cytotoxicity assays. According to the results, only modest antibacterial activity was detected against the more sensitive Bacillus subtilis strain.
(§2) All reagents were purchased from Sigma-Aldrich (Hungary, Budapest). E. coli-GFP and B. subtilis-GFP bacteria were grown in Lysogeny Broth (Luria-Bertani broth, LB, 10 g tryptone, 5 g yeast extract, 10 g/L NaCl, pH 7.0) medium overnight (ON) at 37 °C in an incubator with continuous shaking. The ON bacterial culture was diluted (E. coli-GFP: 1:10000, B. subtilis-GFP: 1:1000) in LB medium containing 10 µg/mL ampicillin. Two hundred microliters of diluted E. coli suspension per well were transferred to 96-well plates and different agents were added in the appropriate concentration, then incubated in a shaker (600 rpm) for 3 h at 37 °C. Test compounds were dissolved in 3-fold amounts of dimethyl sulfoxide (DMSO). […] For induction of the GFP expression IPTG (0.1 mM final concentration) was added to each well and incubated for 3 h at 37 °C.
(§3) The following incubation samples were centrifuged at 2750 rpm at room temperature (RT) for 5 min and washed twice with 200 µL PBS, with a centrifugation step between the two washes. After a third centrifugation step, the bacterial cells were suspended in 100 µL PBS. The number of bacteria was estimated according to the fluorimetric measurements. The fluorescence of the bacterial cells was measured by the Victor™ 1420 Multilabel Counter (Perkin Elmer, Waltham, MA, USA) at 485/535 nm for 1 sec per well controlled by Wallac 1420 Manager software. Each treatment was repeated in at least 2 wells per plate during the experiments. Percentage fluorescence intensity based on the quantity of E. coli-GFP cells was calculated using untreated control values as 100%. Error was represented by standard deviation (SD).

E. coli-GFP = test: Antibacterial activity on GFP producing Gram-negative bacteria (fluorimetry); assay type: cell-based, Escherichia coli; conditions: GFP fluorescence, 1–30 µM tested, mean ± SD
Method: as §1, §2, §3

in vitro [3] = conditions: human
Method: as §4, §5, §6

in vitro [4] = conditions: mouse
Method: as §4, §5, §6

[5] = In vitro cytotoxicity, fluorescent Resazurin assay; conditions: human, HL-60 cells (human promyelocytic leukemia), In Vitro Cytotoxicity (IC50, µM) HL-60, 72 h incubation, 1–30 µM tested, mean ± SD
Method: as §4, §5, §6

in vitro [6] = conditions: human, In Vitro Cytotoxicity (IC50, µM) HL-60, 72 h incubation, 1–30 µM tested, mean ± SD
Method: as §4, §5, §6

[7] = system: A549 cells (human lung adenocarcinoma)
Method: as §4, §5, §6

[8] = system: NIH/3T3 cells (mouse fibroblast)
Method: as §4, §5, §6

[9] = A549 cells (human lung adenocarcinoma)
[10] = NIH/3T3 cells (mouse fibroblast)
[11] = read-out: In Vitro Cytotoxicity (IC50, µM) HL-60, 72 h incubation, 1–30 µM tested, mean ± SD

CC(C)C[C@H](NC(=O)[C@H](Cc1ccccc1)NC(=O)c1cnccn1)B(O)O [Bortezomib, reference compound]
In Vitro Cytotoxicity (IC50, µM) HL-60 [1]: 7.42 × 10^−3 2.60 × 10^−3 µM
IC50 ([2]; Homo sapiens, HL-60, 72 h, read-out: IC50 for HL60 (positive control), 72 h incubation, value in nM): 7.42 ± 2.6 nM

CCCCOP(=O)(OCCCC)c1c(-c2ccccc2)nnn1Cc1ccccc1 [Compound 8, Dibutyl (1-benzyl-4-phenyl-1,2,3-triazol-5-yl)phosphonate]
IC50 (B. subtilis-GFP; Bacillus subtilis): > 30 µM
IC50 (E. coli-GFP; Escherichia coli): > 30 µM
IC50 at 72 h (in vitro [3]; [9]): > 30 µM
IC50 at 72 h (in vitro [4]; [10]): 27.5 ± 1.4 µM
IC50 at 72 h [5]: > 30 µM

COP(=O)(OC)c1c(-c2ccccc2)nnn1Cc1ccccc1 [Compound 11, Dimethyl (1-benzyl-4-phenyl-1,2,3-triazol-5-yl)phosphonate]
IC50 (B. subtilis-GFP; Bacillus subtilis): > 30 µM
IC50 (E. coli-GFP; Escherichia coli): > 30 µM
IC50 at 72 h (in vitro [3]): > 30 µM
IC50 at 72 h (in vitro [4]): > 30 µM
IC50 at 72 h (in vitro [6]): > 30 µM

CCOP(=O)(OCC)c1c(-c2ccccc2)nnn1Cc1ccccc1 [Compound 12, Diethyl (1-benzyl-4-phenyl-1,2,3-triazol-5-yl)phosphonate]
IC50 (B. subtilis-GFP; Bacillus subtilis): > 30 µM
IC50 (E. coli-GFP; Escherichia coli): > 30 µM
IC50 at 72 h (in vitro [3]): > 30 µM
IC50 at 72 h (in vitro [4]): > 30 µM
IC50 at 72 h (in vitro [6]): > 30 µM

CCCOP(=O)(OCCC)c1c(-c2ccccc2)nnn1Cc1ccccc1 [Compound 13, Dipropyl (1-benzyl-4-phenyl-1,2,3-triazol-5-yl)phosphonate]
IC50 (B. subtilis-GFP; Bacillus subtilis): 29.3 ± 1.2 µM
IC50 (E. coli-GFP; Escherichia coli): > 30 µM
IC50 at 72 h (in vitro [3]; [9]): > 30 µM
IC50 at 72 h (in vitro [4]; [10]): > 30 µM
IC50 at 72 h [5]: 12.6 ± 1.7 µM

CC(C)OP(=O)(OC(C)C)c1c(-c2ccccc2)nnn1Cc1ccccc1 [Compound 14, Diisopropyl (1-benzyl-4-phenyl-1,2,3-triazol-5-yl)phosphonate]
IC50 (B. subtilis-GFP; Bacillus subtilis): > 30 µM
IC50 (E. coli-GFP; Escherichia coli): > 30 µM
IC50 at 72 h (in vitro [3]; [9]): > 30 µM
IC50 at 72 h (in vitro [4]; [10]): > 30 µM
IC50 at 72 h [5]: > 30 µM

CCCCCOP(=O)(OCCCCC)c1c(-c2ccccc2)nnn1Cc1ccccc1 [Compound 15, Dipentyl (1-benzyl-4-phenyl-1,2,3-triazol-5-yl)phosphonate]
IC50 (B. subtilis-GFP; Bacillus subtilis): 23.9 ± 1 µM
IC50 (E. coli-GFP; Escherichia coli): > 30 µM
IC50 at 72 h (in vitro [3]; [9]): > 30 µM
IC50 at 72 h (in vitro [4]; [10]): 26.2 ± 1.1 µM
IC50 at 72 h [5]: 15.4 ± 1.2 µM

COP(=O)(OC)c1c(-c2ccccc2)nnn1Cc1ccc(C)cc1 [Compound 16, Dimethyl [1-(4-methylbenzyl)-4-phenyl-1,2,3-triazol-5-yl]phosphonate]
IC50 (B. subtilis-GFP; Bacillus subtilis): > 30 µM
IC50 (E. coli-GFP; Escherichia coli): > 30 µM
IC50 at 72 h (in vitro [3]): > 30 µM
IC50 at 72 h (in vitro [4]): 19.8 ± 1.2 µM
IC50 at 72 h (in vitro [6]): ~10 µM
IC50 [2, 11]: 11000 ± 1200 nM

CCOP(=O)(OCC)c1c(-c2ccccc2)nnn1Cc1ccc(C)cc1 [Compound 17, Diethyl [1-(4-methylbenzyl)-4-phenyl-1,2,3-triazol-5-yl]phosphonate]
IC50 (B. subtilis-GFP; Bacillus subtilis): > 30 µM
IC50 (E. coli-GFP; Escherichia coli): > 30 µM
IC50 at 72 h (in vitro [3]): > 30 µM
IC50 at 72 h (in vitro [4]): > 30 µM
IC50 at 72 h (in vitro [6]): > 30 µM

CCCCOP(=O)(OCCCC)c1c(-c2ccccc2)nnn1Cc1ccc(C)cc1 [Compound 18, Dibutyl [1-(4-methylbenzyl)-4-phenyl-1,2,3-triazol-5-yl]phosphonate]
IC50 (B. subtilis-GFP; Bacillus subtilis): 18.2 ± 1 µM
IC50 (E. coli-GFP; Escherichia coli): > 30 µM
IC50 at 72 h (in vitro [3]; [9]): > 30 µM
IC50 at 72 h (in vitro [4]; [10]): > 30 µM
IC50 at 72 h [5]: > 30 µM

CCCCOP(=O)(OCCCC)c1c(-c2ccccc2)nnn1Cc1ccccc1F [Compound 19, Dibutyl [1-(2-fluorobenzyl)-4-phenyl-1,2,3-triazol-5-yl]phosphonate]
IC50 (B. subtilis-GFP; Bacillus subtilis): 19.3 ± 1 µM
IC50 (E. coli-GFP; Escherichia coli): > 30 µM
IC50 at 72 h (in vitro [3]; [9]): > 30 µM
IC50 at 72 h (in vitro [4]; [10]): 27.5 ± 1.1 µM
IC50 at 72 h [5]: 11.7 ± 1.2 µM

CCCCOP(=O)(OCCCC)c1c(-c2ccccc2)nnn1Cc1cccc(F)c1 [Compound 20, Dibutyl [1-(3-fluorobenzyl)-4-phenyl-1,2,3-triazol-5-yl]phosphonate]
IC50 (B. subtilis-GFP; Bacillus subtilis): > 30 µM
IC50 (E. coli-GFP; Escherichia coli): > 30 µM
IC50 at 72 h (in vitro [3]; [9]): > 30 µM
IC50 at 72 h (in vitro [4]; [10]): > 30 µM
IC50 at 72 h [5]: 15.4 ± 1.2 µM

CCCCOP(=O)(OCCCC)c1c(-c2ccccc2)nnn1Cc1ccc(F)cc1 [Compound 21, Dibutyl [1-(4-fluorobenzyl)-4-phenyl-1,2,3-triazol-5-yl]phosphonate]
IC50 (B. subtilis-GFP; Bacillus subtilis): 23.2 ± 1.1 µM
IC50 (E. coli-GFP; Escherichia coli): > 30 µM
IC50 at 72 h (in vitro [3]; [9]): > 30 µM
IC50 at 72 h (in vitro [4]; [10]): > 30 µM
IC50 at 72 h [5]: 16.6 ± 1.3 µM

CCCCOP(=O)(OCCCC)c1c(-c2ccccc2)nnn1Cc1ccc(C(F)(F)F)cc1 [Compound 22, Dibutyl [1-(4-trifluoromethyl)-4-phenyl-1,2,3-triazol-5-yl]phosphonate]
IC50 (B. subtilis-GFP; Bacillus subtilis): > 30 µM
IC50 (E. coli-GFP; Escherichia coli): > 30 µM
IC50 at 72 h (in vitro [3]; [9]): > 30 µM
IC50 at 72 h (in vitro [4]; [10]): 23.1 ± 1.2 µM
IC50 at 72 h [5]: ~10 µM
IC50 [2, 11]: 9700 ± 1100 nM

CCCCCCCCn1nnc(-c2ccccc2)c1P(=O)(OC)OC [Compound 23, Dimethyl (1-octyl-4-phenyl-1,2,3-triazol-5-yl)phosphonate]
IC50 (B. subtilis-GFP; Bacillus subtilis): > 30 µM
IC50 (E. coli-GFP; Escherichia coli): > 30 µM
IC50 at 72 h (in vitro [3]): > 30 µM
IC50 at 72 h (in vitro [4]): > 30 µM
IC50 at 72 h (in vitro [6]): > 30 µM

CCCCCCCCn1nnc(-c2ccccc2)c1P(=O)(OCC)OCC [Compound 24, Diethyl (1-octyl-4-phenyl-1,2,3-triazol-5-yl)phosphonate]
IC50 (B. subtilis-GFP; Bacillus subtilis): > 30 µM
IC50 (E. coli-GFP; Escherichia coli): > 30 µM
IC50 at 72 h (in vitro [3]): > 30 µM
IC50 at 72 h (in vitro [4]): > 30 µM
IC50 at 72 h (in vitro [6]): > 30 µM

CCCCCCCCn1nnc(-c2ccccc2)c1P(=O)(OCCCC)OCCCC [Compound 25, Dibutyl (1-octyl-4-phenyl-1,2,3-triazol-5-yl)phosphonate]
IC50 (B. subtilis-GFP; Bacillus subtilis): > 30 µM
IC50 (E. coli-GFP; Escherichia coli): > 30 µM
IC50 at 72 h (in vitro [3]; [9]): > 30 µM
IC50 at 72 h (in vitro [4]; [10]): > 30 µM
IC50 at 72 h [5]: > 30 µM

COc1cccc2c1C(=O)c1c(O)c3c(c(O)c1C2=O)C[C@@](O)(C(=O)CO)C[C@@H]3O[C@H]1C[C@H](N)[C@H](O)[C@H](C)O1 [Doxorubicin, reference compound]
IC50 at 72 h (in vitro [3]): 0.31 ± 0.24 µM
IC50 at 72 h (in vitro [4]): 5.65 ± 0.81 µM

C[C@H]1c2cccc(O)c2C(=O)C2=C(O)[C@]3(O)C(=O)C(C(N)=O)=C(O)[C@@H](N(C)C)[C@@H]3[C@@H](O)[C@@H]21 [Doxycycline, reference compound]
IC50 (B. subtilis-GFP; Bacillus subtilis): 0.04 ± 0.01 µM
IC50 (E. coli-GFP; Escherichia coli): 0.1 ± 0.02 µM

CNC(C)C1CCC(N)C(OC2C(N)CC(N)C(OC3OCC(C)(O)C(NC)C3O)C2O)O1 (centres unmarked) [Gentamicin, reference compound]
IC50 (B. subtilis-GFP; Bacillus subtilis): 0.49 ± 0.14 µM
IC50 (E. coli-GFP; Escherichia coli): 4.23 ± 0.99 µM

Dibutyl (1-isooctyl-4-phenyl-1,2,3-triazol-5-yl)phosphonate [Compound 26]
IC50 (B. subtilis-GFP): 29.6 ± 1 µM
IC50 (E. coli-GFP): > 30 µM
IC50 [7]: > 30 µM
IC50 [8]: > 30 µM
IC50 [2, 11]: 26700 ± 1000 nM
